Data as given in patent USRE42890E1, “Furazanobenzimidazoles” (Basilea Pharmaceutica AG, priority 2003, dated 2011).
Where two headings read alike, the source gives them in different places.

Assays:
Jurkat = test: MTS proliferation assay, Jurkat; format: cell-based, human; conditions: 72 h incubation, read-out: MTS proliferation assay IC 50 Jurkat
Protocol: (§1) Cell lines are cultured in RPMI-1640 tissue culture medium containing either 5% or 10% fetal calf serum, 0.05 mM 2-mercaptoethanol, 2 mM glutamine and penicillin/streptomycin 50 μg/ml (complete medium) (Sigma, Buchs, Switzerland). General growth conditions are 37° C. and 7.5% CO2.
(§2) The following human cell lines (either EGFP transfected or not) are being used: HeLa (ATCC: CCL-2), KB (ATCC: CCL-17), MCF7 (ATCC: HTB-22), SK-BR-3 (ATCC: HTB-30), SK-Mel 1 (ATCC: HTB-67), SK-Mel 28 (ATCC: HTB-72), PC-3 (ATCC: CRL-1435), SW 480 (ATCC: CCL-228), NCl-H460 (ATCC: HTB-177), NCl-H1792 (ATCC: CRL-5895), HT1080 (ATCC: CCL-21), Jurkat (ATCC: TIB-152), Ramos (ATCC: CRL-1596), Raji (ATCC: CCL-86), H9 (ATCC: HTB-176), Hut78 (ATCC: TIB-161), K562 (ATCC: CCL 243), HL-60 (ATCC: CCL 240), U-87MG (ATCC: HTB-14), HepG2 (ATCC: HB-8065), U-2 OS (ATCC: HTB-96), Saos-2 (ATCC: HTB-85), U937 (ATCC: CRL 1593), Hs 578T (ATCC: HTB 126), HBL-100 (ATCC: HTB 124), Molt-4 (ATCC: CRL 1582).
(§3) The assay is performed in 96 well tissue culture plates. The cells (range: 1.5*10^3-10^4) are seeded out in 80 μl complete medium 24 h prior to compound treatment. The test compounds are added in 20 μl complete medium containing max 5% DMSO. The final compound concentrations in the assays are 10 μM, 3 μM, 1 μM and 0.3 μM, respectively. The assay plates are incubated for 72 h at culture conditions. The MTS reagent is prepared according to the manufacturer's protocol (Promega G1111). 20 μl MTS reagent are added to each well, the assay plates are quickly spun and incubated for another 3 h at culture conditions. Subsequently, the plates are shortly shaked and absorption measured with a microplate-reader at 492 nm.

HeLa = test: MTS proliferation assay, HeLa; format: cell-based, human; conditions: 72 h incubation, read-out: MTS proliferation assay IC 50 HeLa
Protocol: as §1, §2, §3

MRC5 = test: MTS proliferation assay, MRC5; format: cell-based; conditions: MRC5, 72 h incubation, read-out: MTS proliferation assay IC 50 MRC5
Protocol: as §1, §3

[1] = system: adherent cells or suspension cells; test: Hoechst 33342 nuclear staining (fraction of apoptotic nuclei); format: cell-based; design: key: 0 relating to no activity; 1 relating to weak activity comprising less than 70% of the cells; score 2 relating to strong activity comprising more than 70% of the cells
Protocol: as §1
This assay is performed in 96 well tissue culture plates. Appropriate number of cells (adherent cells: 3-5*10^3, suspension cells: 8-10*10^3) are being seeded out in 80 μl complete medium. Adherent cells are incubated for 24 h for proper spreading out before addition of test compounds while suspension cells are immediately treated with test compounds after seeding out. The test compounds are added in 20 μl complete medium containing max 5% DMSO. […] After 24 h or 48 h incubation at culture conditions, 10 μl medium containing Hoechst 33342 dye (Sigma B-2261) at 2-5 μg/ml are added to each well. The assay plates are then further incubated for 30 minutes and subsequently analyzed with a standard inverted fluorescence microscope.
The readout allows the determination of the fraction of apoptotic nuclei as well as other morphological criteria specific for apoptosis as a function of the treatment. The following scores are used: 0 relating to no activity, 1 relating to weak activity comprising less than 70% of the cells and score 2 relating to strong activity comprising more than 70% of the cells.

| Structure (SMILES) | IC50 (Jurkat) [nM] | IC50 (HeLa) [nM] | IC50 (MRC5) [nM] | Hoechst 33342 nuclear staining score ([1]; H460, conc 0.01 μm) | Hoechst 33342 nuclear staining score ([1]; H460, conc 0.1 μm) | Hoechst 33342 nuclear staining score ([1]; H460, conc 1 μm) | Hoechst 33342 nuclear staining score ([1]; HeLa, conc 0.01 μm) | Hoechst 33342 nuclear staining score ([1]; HeLa, conc 0.1 μm) | Hoechst 33342 nuclear staining score ([1]; HeLa, conc 1 μm) | Hoechst 33342 nuclear staining score ([1]; Jurkat, conc 0.01 μm) | Hoechst 33342 nuclear staining score ([1]; Jurkat, conc 0.1 μm) | Hoechst 33342 nuclear staining score ([1]; Jurkat, conc 1 μm) | Hoechst 33342 nuclear staining score ([1]; MRC5, conc 0.01 μm) | Hoechst 33342 nuclear staining score ([1]; MRC5, conc 0.1 μm) | Hoechst 33342 nuclear staining score ([1]; MRC5, conc 1 μm) | Hoechst 33342 nuclear staining score ([1]; PBLs, conc 0.01 μm) | Hoechst 33342 nuclear staining score ([1]; PBLs, conc 0.1 μm) | Hoechst 33342 nuclear staining score ([1]; PBLs, conc 1 μm) | Hoechst 33342 nuclear staining score ([1]; Jily, conc 0.01 μm) | Hoechst 33342 nuclear staining score ([1]; Jily, conc 0.1 μm) | also measured |
| --- | --- | --- | --- | --- | --- | --- | --- | --- | --- | --- | --- | --- | --- | --- | --- | --- | --- | --- | --- | --- | --- |
| CON=C(Cn1c(-c2nonc2N)nc2ccccc21)c1ccccc1 (mixture of isomers) [Example 18] | 100 to 1000 | > 1000 | 100 to 1000 | 0 | 0 | 1 (1 relating to weak activity comprising less than 70% of the cells) | 0 | 0 | 2 (score 2 relating to strong activity comprising more than 70% of the cells) | 0 | 0 | 2 (score 2 relating to strong activity comprising more than 70% of the cells) | 0 | 0 | 1 (1 relating to weak activity comprising less than 70% of the cells) | 0 | 0 | 0 | – | – | – |
| CON=C(Cn1c(-c2nonc2N)nc2ccccc21)c1ccc(OC)cc1 (mixture of isomers) [Example 38] | 100 to 1000 | 100 to 1000 | > 1000 | 0 | 0 | 0 | 0 | 0 | 0 | 0 | 0 | 0 | 0 | 0 | 0 | 0 | 0 | 0 | 0 | 0 | Hoechst 33342 nuclear staining score ([1]; Jily, conc 1 μm): 0 |
| COc1cccc(C(=O)Cn2c(-c3nonc3N)nc3ccccc32)c1 [Example 23] | 100 to 1000 | 100 to 1000 | 100 to 1000 | – | – | – | 0 | 0 | 2 (score 2 relating to strong activity comprising more than 70% of the cells) | 0 | 0 | 2 (score 2 relating to strong activity comprising more than 70% of the cells) | 0 | 0 | 0 | 0 | 0 | 0 | – | – | – |
| Nc1nonc1-c1nc2ccccc2n1CC(=O)c1ccccc1 [Example 1, 4-(1-Phenacyl-1H-benzimidazol-2-yl)-furazan-3-ylamine] | – | – | – | 0 | 0 | 2 (score 2 relating to strong activity comprising more than 70% of the cells) | 0 | 0 | 2 (score 2 relating to strong activity comprising more than 70% of the cells) | 0 | 0 | 2 (score 2 relating to strong activity comprising more than 70% of the cells) | 0 | 0 | 1 (1 relating to weak activity comprising less than 70% of the cells) | 0 | 0 | 0 | – | – | IC50 (Jurkat; Homo sapiens): 10 to 100 nM; IC50 (HeLa; Homo sapiens): 100 to 1000 nM; IC50 (MRC5; Homo sapiens): > 1000 nM |
| CON=C(Cn1c(-c2nonc2N)nc2ccccc21)c1cccc(OC)c1 (mixture of isomers) [Example 25] | 100 to 1000 | > 1000 | > 1000 | 0 | 0 | 0 | 0 | 0 | 0 | 0 | 0 | 1 (1 relating to weak activity comprising less than 70% of the cells) | 0 | 0 | 0 | 0 | 0 | 0 | 0 | 0 | Hoechst 33342 nuclear staining score ([1]; Jily, conc 1 μm): 0 |
| CON=C(Cn1c(-c2nonc2N)nc2ccccc21)c1cccc(Cl)c1 (mixture of isomers) [Example 37] | 100 to 1000 | 100 to 1000 | 100 to 1000 | 0 | 0 | 0 | 0 | 0 | 0 | – | – | – | 0 | 0 | 1 (1 relating to weak activity comprising less than 70% of the cells) | 0 | 0 | 0 | 0 | 0 | Hoechst 33342 nuclear staining score ([1]; Jily, conc 1 μm): 2 (score 2 relating to strong activity comprising more than 70% of the cells) |
| CNc1nonc1-c1nc2ccccc2n1CC(=O)c1ccc(Cl)cc1 [Example 3, Methyl-{4-[1-(4-chlorophenacyl)-1H-benzimidazol-2-yl]-furazan-3-yl}-amine] | – | – | – | – | – | – | 0 | 0 | 0 | 0 | 0 | 0 | 0 | 0 | 0 | 0 | 0 | 0 | – | – | IC50 (Jurkat; Homo sapiens): 100 to 1000 nM; IC50 (MRC5; Homo sapiens): > 1000 nM |
| Nc1nonc1-c1nc2ccccc2n1CC(=NO)c1ccccc1 (mixture of isomers) [Example 17] | > 1000 | > 1000 | – | 0 | 0 | 0 | 0 | 0 | 0 | 0 | 0 | 0 | 0 | 0 | 0 | 0 | 0 | 0 | 0 | 0 | Hoechst 33342 nuclear staining score ([1]; Jily, conc 1 μm): 0 |
